# Measured values as given in the RepoRT retention time repository.
# Assay: RP, Waters ACQUITY UPLC BEH C8, 100 × 2.1 mm, 1.7 µm, 55 °C, 0.6 mL/min, estimated dead time 0.37 min; A: 50% water + 25% acetonitrile + 25% isopropanol + 0.05% acetic acid + 20 µM phosphoric acid + 5 mM ammonium acetate; B: 50% acetonitrile + 50% isopropanol + 0.05% acetic acid + 5 mM ammonium acetate; gradient (min/%B) 0/1 0.1/1 2/30 11.5/90 12/99.9 12.5/99.9 12.55/65 12.65/30 12.75/1 12.95/1 13.25/1
# Settings: stereoisomer not certain
row,SMILES,LC retention time [min]
1,C=C1C=CCC(C)(C)C1C=CC(C)=CC=CC(C)=CC=CC=C(C)C=CC=C(C)C=CC1=C(C)CC(O)CC1(C)C (configuration not stated) [Anhydrolutein I],5.77
2,CCCCCCCCCCCCCCCCCCCCCC(=O)NC(CO)C(O)CCCCCCCCCCCCCCC (configuration not stated) [Cer(d18:0/22:0)],8.61
3,CCCCCCCCCCCCCCCC(=O)OCC(O)COP(=O)(O)OCCN (configuration not stated) [LPE(16:0/0:0)],1.93
4,CCCCCCCCCCCCCC=CC(O)C(CO)NC(=O)CCCCCCCCCCCCCCC (configuration not stated) [Cer(d18:1/16:0)],6.5
5,CC(C)=CCCC(C)=CCCC(C)=CC=CC(C)=CC=CC=C(C)C=CC=C(C)CCC=C(C)CCC=C(C)C [Zeta-carotene],8.28
6,CCCCCCCCCCCCCCCCC=COCC(O)COP(=O)(O)OCCN (configuration not stated) [LPE(P-18:0/0:0)],2.75
7,CCCCCCCCCCCCCCCCCC(=O)OC(CO)COP(=O)(O)OCCN (configuration not stated) [LPE(0:0/18:0)],2.38
8,CCCCCCCCCCCCCCCC(=O)OCC(COP(=O)([O-])OCC[N+](C)(C)C)OC(=O)CCCCCCCCCCCCCCC (configuration not stated) [PC(16:0/16:0)],6.38
9,CCCCCCCCCCCCCC=CC(O)C(COP(=O)([O-])OCC[N+](C)(C)C)NC(=O)CCCCCCCCCCCCCCCCCCCCCCC (configuration not stated) [SM(d18:1/24:0)],8.4
10,CCCCCCCCCCCCCCCCCCCC(=O)OCC(O)COP(=O)([O-])OCC[N+](C)(C)C (configuration not stated) [LPC(20:0/0:0)],3.02
11,CC(C)=CCCC(C)=CC=CC(C)=CC=CC(C)=CC=CC=C(C)C=CC=C(C)C=CC1=C(C)CCCC1(C)C [Gamma-carotene],8.22
12,CCCCCCCCCCCCCCCCOCC(O)COP(=O)([O-])OCC[N+](C)(C)C (configuration not stated) [LPC(O-16:0/0:0)],2.09
13,CCCCCCCCCCCC=CC(O)C(CO)NC(=O)CCCCCCCCCCCCCCCCCCCCC (configuration not stated) [Cer(d16:1/22:0)],7.93
14,CCCCCCCCCCCCCCCCCCCC(=O)OC(CC(=O)[O-])C[N+](C)(C)C (configuration not stated) [Arachidyl carnitine CAR(20:0)],2.88
15,CCCCCCCCCCCC=CC(O)C(COP(=O)([O-])OCC[N+](C)(C)C)NC(=O)CCCCCCCCCCCCCCCCCCCCC (configuration not stated) [SM(d16:1/22:0)],7.23
16,CCCCCCCCCCCCCCCC(=O)OCC(COP(=O)([O-])OCC[N+](C)(C)C)OC(=O)CCCCCCCCCCCCCC (configuration not stated) [PC(16:0/15:0)],5.97
17,CCCCCCCCCCCCCCC=CC(O)C(COP(=O)([O-])OCC[N+](C)(C)C)NC(=O)CCCCCCCCCCCCCCCCC (configuration not stated) [SM(d19:1/18:0)],6.66
18,CCCCCCCCCCCCCC=CC(O)C(COP(=O)([O-])OCC[N+](C)(C)C)NC(=O)CCCCCCCCCCCCCCCCCCC (configuration not stated) [SM(d18:1/20:0)],7.12

# The remaining lines, values ahead:
row,LC retention time [min],SMILES
1,1.27,CCCCCCCCCCCCCC(=O)OC(CO)COP(=O)([O-])OCC[N+](C)(C)C (configuration not stated) [LPC(0:0/14:0)]
2,2.3,CCCCCCCCCCCCCCCCCC(=O)OC(CC(=O)[O-])C[N+](C)(C)C (configuration not stated) [Stearoylcarnitine CAR(18:0)]
3,5.94,CCCCCCCCCCCCCCCC(=O)NC(COP(=O)([O-])OCC[N+](C)(C)C)C(O)CCCCCCCCCCCCCCC (configuration not stated) [SM(d18:0/16:0)]
4,1.87,CCCCCCCCCCCCCCCC(=O)OCC(O)COP(=O)([O-])OCC[N+](C)(C)C (configuration not stated) [LPC(16:0/0:0)]
5,5.02,Cc1cc(O)cc2c1OC(C)(CCCC(C)CCCC(C)CCCC(C)C)CC2 (configuration not stated) [Delta-Tocopherol]
6,2.65,CCCCCCCCCCCCCCCCC=COCC(O)COP(=O)([O-])OCC[N+](C)(C)C (configuration not stated) [LPC(P-18:0/0:0)]
7,0.876,CCCCCCCCCCCC(=O)OC(CC(=O)[O-])C[N+](C)(C)C (configuration not stated) [Lauroylcarnitine CAR(12:0)]
8,2.14,CCCCCCCCCCCCCCCCC(=O)OCC(O)COP(=O)([O-])OCC[N+](C)(C)C (configuration not stated) [LPC(17:0/0:0)]
9,2.66,CCCCCCCCCCCCCCCCCCOCC(O)COP(=O)([O-])OCC[N+](C)(C)C (configuration not stated) [LPC(O-18:0/0:0)]
10,1.52,CCCCCCCCCCCCCC=CC(O)C(N)COP(=O)(O)O (configuration not stated) [Sphingosine-1-phosphate]
11,3.31,CCCCCCCCCCCCCCCCCCCCOCC(O)COP(=O)([O-])OCC[N+](C)(C)C (configuration not stated) [LPC(O-20:0/0:0)]
12,2.3,CCCCCCCCCCCCCCCCCC(=O)OC(CO)COP(=O)([O-])OCC[N+](C)(C)C (configuration not stated) [LPC(0:0/18:0)]
13,1.61,CCCCCCCCCCCCCCC(=O)OCC(O)COP(=O)([O-])OCC[N+](C)(C)C (configuration not stated) [LPC(15:0/0:0)]
14,1.75,CCCCCCCCCCCCCCCC(=O)OC(CC(=O)[O-])C[N+](C)(C)C (configuration not stated) [Palmitoylcarnitine CAR(16:0)]
